Where “and” joins values, the source holds several entries; their conditions need not be identical. Equal values may be shown once. Read-outs that look alike come from different tables or passages of the source.
Columns and labels:
[1] = cited from earlier work; for pI of β-lactoglobulin: literature value (Jameson et al., 2002)
[2] = Partition of vitamin D2 between nanocomplex pellet and serum (ultracentrifugation, RP-HPLC); assay type: physicochemical
Method: To evaluate the encapsulation of the vitamin within the nanoparticles, the partition of the vitamin between the particles and the serum was studied. For this purpose, an ultra centrifuge (15,000×g) was used to separate the nanocomplexes (pellet) from the serum (supernatant), and the concentration of vitamin D2 in the pellet was compared to that in the serum. Vitamin content of particles and serum was analyzed by solvent extraction followed by reversed phase HPLC, according to the method described in Semo et al., 2007, Food Hydrocolloids 21:936. […] Therefore, vitamin concentration in the nanoparticle pellet was 55 times higher than vitamin concentration in the serum, and 5.7 times higher than the initial concentration of the vitamin in the dispersion (13.5 μg mL^−1).

[3] = Vitamin D2 accelerated shelf-life stress test at 30° C.; assay type: physicochemical; settings: pH 4.25, 30° C., 125 hours
Method: FIG. 7: Effect of encapsulation on stability of vitamin D during an accelerated shelf-life stress test at pH 4.25: samples were stored at 30° C. in closed vials containing 10 mL of solution and 10 mL of air, for a period of 125 hours: (▪) VD2-loaded β-lactoglobulin) (▴) complexes of VD2-β-lactoglobulin-pectin (pH 4.25). (♦) control of unprotected VD2 in water.

[4] = Electrophoretic mobility / zeta potential; assay type: physicochemical
Source text: Four criteria were used in order to evaluate the β-lactoglobulin-polysaccharide nanocomplexes and find the conditions (pH and ratio) which yield transparent suspensions containing small and stable nanoparticles: Sedimentation—Qualitative observation of the solutions in glass vials, following overnight equilibration at room temperature; Turbidity—Measured by an Ultrospec 3000 spectrophotometer (GE Healthcare, Life Sciences, UK), at 600 nm using 1 cm path cuvettes: Samples were vortexed prior to analysis; Electrophoretic mobility (EM or μe)—Measured using a zeta potential/particle size analyzer NICOMP™ 380 (Particle Sizing Systems Ltd. Santa Barbara, Calif., Agilent Technologies Inc., USA). The EM was measured under a 3 V/cm e-field at 25° C.; and Particle size—measured by Dynamic Light Scattering using the NICOMP™380 at 23° C. using 0.933 cp for the viscosity of the medium.
The stability of these colloidal systems was studied by measuring the electrophoretic mobility (EM) of the colloidal particles (FIGS. 12 and 13). Because the ionic strength of the studied systems was very low, and the particles are both very small and “soft” (being aggregates of oppositely charged polymers), the precise calculation of zeta potential from EM is not possible, due to the complexity of the system, and the limitations of currently available theoretical models. […]

CC/C=C\C/C=C\C/C=C\C/C=C\C/C=C\C/C=C\CCC(=O)O [DHA, docosahexaenoic acid]
pKa of DHA ([1]; Namani et al., 2007): ≈ 8.5

C=C1CC[C@H](O)C/C1=C/C=C1\CCC[C@]2(C)[C@@H]([C@H](C)/C=C/[C@H](C)C(C)C)CC[C@@H]12 [Vitamin D2, ergocalciferol]
vitamin concentration in the nanoparticle pellet relative to the initial concentration in the dispersion ([2]; initial concentration 13.5 μg mL^−1): 5.7 times higher
Vitamin D2 concentration in the supernatant (serum) ([2]; β-lactoglobulin-pectin nanocomplex dispersion centrifuged at 15,000×g): 1.4 µg/mL
vitamin concentration in the nanoparticle pellet relative to the serum ([2]; β-lactoglobulin-pectin nanocomplexes): 55 times higher
Vitamin D2 concentration in the pellet ([2]; β-lactoglobulin-pectin nanocomplexes separated at 15,000×g, initial concentration 13.5 μg mL^−1): 77.26 µg/mL
degradation of the vitamin (ranking) ([3]; unprotected control, vitamin D dispersion in water): fastest degradation rate
degradation of the vitamin (ranking) ([3]; vitamin D2 in β-lactoglobulin-pectin nanocomplexes, closed vials with 10 mL air): slowest degradation

β-lactoglobulin: bovine β-lactoglobulin isolate (Davisco), major whey protein, 18.4 kDa
isoelectric point from electrophoretic mobility versus pH ([4]; 0.05% β-lactoglobulin alone, 25° C., low ionic strength (FIG. 13)): 5.2
zeta potential ([4]; pure β-lactoglobulin 0.05% wt, no pectin, pH 3.5 to 4.5): +6 mV
pI of β-lactoglobulin [1]: 5.18 and 5.1
pI of β-lactoglobulin ([1]; listed as lactoglobulin): 5.18

From US8791064B2, “Beta-lactoglobulin-polysaccharide nanoparticles for hydrophobic bioactive compounds” (Technion Research and Development Foundation Ltd., priority 2008, dated 2014)
